The source of these data is patent US20240131168A1, “NAPHTHALENE RING-CONTAINING COMPOUND, PHARMACEUTICAL COMPOSITION CONTAINING SAME, AND USE THEREOF” (JIANGSU YAHONG MEDITECH CO., LTD., priority 2021, published 2024).

Assay type in all cases: cell-based
One experiment relates to MDA-MB-468. As to the kind of experiment: CellTiter-Glo cell proliferation inhibition, MDA-MB-468. The following applies: Homo sapiens, MDA-MB-468 (CTG), starting concentration 10 μM; for inhibition at up to 10 µM: read-out: IH % max (maximum inhibition percentage). (In general: Cellular ATP, detected with luciferase, serves as a proxy for viable cell number.)
Another experiment relates to MCF-7. Nature of the experiment: CellTiter-Glo cell proliferation inhibition, MCF-7 (Effect Example 2). The following applies: Homo sapiens, MCF7, 144 h, MCF-7 (CTG), 6 days, starting concentration 10 μM; for inhibition at up to 10 µM: read-out: IH % max (maximum inhibition percentage). The method, boiled down: (§1)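 MCF-7, TamR-MCF-7, and CRISPR-edited MCF-7 ER D538G or Y537S cells were seeded at 1,000 or 2,000 cells/well in EMEM and cultured 24 h. They were then exposed to a 4-fold, 10-point series (top 10 µM before addition to wells) for 6 days or 72 h at 37 °C. CellTiter-Glo luminescence gave IC50 and maximum % inhibition.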

The next experiment has as its system TamR-MCF-7. As to the kind of experiment: CellTiter-Glo cell proliferation inhibition, TamR-MCF-7. The following applies: 144 h, TamR-MCF-7 (CTG), 6 days, starting concentration 10 μM; for inhibition at up to 10 µM: read-out: IH % max (maximum inhibition percentage). An excerpt:
(§2) 1. Cell line • (1) Breast cancer cell lines and their culture media: • MCF-7 (ATCC; Cat. No.: HTB-22), a Luminal A breast cancer cell; • TamR-MCF-7 (ATCC; Cat. No.: CRL-3435), a breast cancer cell; • MCF-7 ER^D538G: a Luminal A breast cancer cell obtained by constructing MCF-7 (ATCC; Cat. No.: HTB-22) using CRISPR-Cas9 gene editing technology; • MCF-7 ER^Y537S: a Luminal A breast cancer cell obtained by constructing MCF-7 (ATCC; Cat. No.: HTB-22) using CRISPR-Cas9 gene editing technology; • MDA-MB-231: (manufacturer: Nanjing CoBioer Biosciences Co., Ltd.), a triple-negative breast cancer cell; • MDA-MB-468: (manufacturer: Nanjing CoBioer Biosciences Co., Ltd.), a triple-negative breast cancer cell.
(§3) Herein, the culture medium of MCF-7, TamR-MCF-7, MCF-7 ER^D538G, and MCF-7 ER^Y537S was EMEM; • the culture medium of MDA-MB-231 and MDA-MB-468 was DMEM.
(§4) 2. Reagents • Culture medium EMEM (Gibco, 1964507) • Culture medium DMEM (Gibco, 12430-054) • Fetal bovine serum (Gibco, 10091148) • Penicillin-streptomycin double antibody (Gibco, S110JV) • DPBS (Gibco, 14190-144) • CellTiter-Glo® assay kit (Promega, G7573) • Trypsin (0.25%) (Gibco, 25200-056) • DMSO (Sigma, D2650)
(§5) 3. Instruments • Biosafety cabinet (AIRTECH, BSC-1300A II) • Automated cell counter (Life Technologies, countess II) • Multifunctional microplate reader (Biotek, H1FM) • Orbital shaker (Hangzhou Allsheng Instruments Co., Ltd., OS-100) • XLFIT 5.3 (Inforstack Shanghai Co., Ltd.)
(§6) For this test method, the following experiments were performed in a biosafety cabinet, with the specific steps as follows: • (1) Cells were inoculated in a 96-well plate. One day later, the previous culture medium was poured off, 5 mL of DPBS was added to wash the cells, and then DPBS was pipetted and discarded. An appropriate amount of trypsin was then added. The plate was digested in a 37° C., 5% CO2 cell incubator for about 2 to 5 minutes and then taken out. Anew corresponding culture medium was added, and pipetted up and down to resuspend the cells evenly. The cells were then counted using an automated cell counter. • (2) Each cell was inoculated in columns 1 to 11 of a 96-well plate (Corning, Cat. No.: 3610) at a density of 1,000 or 2,000 cells per well in 100 μL of culture medium, and 100 μL of the corresponding culture medium without cells was added to the wells in column 12. The plate was then placed in a 37° C., 5% CO2 incubator for 24 hours. • (3) The compound of the present disclosure and the control drug fulvestrant (Selleck; Cat. No.: S1191) were then 4-fold serially diluted to 10 dose points starting at 10 μM. 10 μL of the serially diluted compound was pipetted and added to 100 μL of cells in columns 1 to 10, and 10 μL of the corresponding culture medium containing 0.33 v % DMSO was added to both columns 11 and 12. The plate was incubated in a 37° C., 5% CO2 incubator for 6 days or 72 hours (Note: column 11 was used as a MAX well with cells but without compound; column 12 was used as a MIN well without cells […]). • (4) The cell viability detection reagent in the CellTiter-Glo® assay kit was then added to the 96-well plate at 50 μL per well according to the instructions, and shaken on an orbital shaker in the dark for 5 to 10 minutes. The cell viability was then measured using a multifunctional microplate reader. Finally, the inhibition of cell proliferation by the compound of the present disclosure was plotted by XLFIT software, and the IC50 value (half inhibitory concentration) and the IH % max (maximum inhibition percentage) of the compound of the present disclosure were calculated.

In a further experiment the test system is MCF-7 ER^Y537S. As to the kind of experiment: CellTiter-Glo cell proliferation inhibition, MCF-7 ER^Y537S. The following applies: Homo sapiens, MCF7, 144 h, MCF-7 ER^Y537S (CTG), 6 days, starting concentration 10 μM; for inhibition at up to 10 µM: read-out: IH % max (maximum inhibition percentage).
Text: as §2, §3, §4, §5, §6

The next experiment has as its system MDA-MB-231. Nature of the experiment: CellTiter-Glo cell proliferation inhibition, MDA-MB-231. The following applies: Homo sapiens, MDA-MB-231 (CTG), starting concentration 10 μM; for inhibition at up to 10 µM: read-out: IH % max (maximum inhibition percentage).
Text: as §2, §3, §4, §5, §6
Compounds D64 to D69 were tested for MDA-MB-231 (CTG) and MDA-MB-468 (CTG) with an incubation time of 72 hours in the incubator.

Another experiment relates to MCF-7 ER^D538G. Nature of the experiment: CellTiter-Glo cell proliferation inhibition, MCF-7 ER^D538G. The following applies: Homo sapiens, MCF7, 144 h, MCF-7 ER^D538G (CTG), 6 days, starting concentration 10 μM; for inhibition at up to 10 µM: read-out: IH % max (maximum inhibition percentage). The method in brief:
as §1

The mark [1] stands for this setting: incubation time 72 hours (D64 to D69).

Each structure is given as a SMILES string. Like-named read-outs stand apart in the source and are kept apart here.

The term IC50 denotes the concentration at which inhibition is half-maximal. A higher IC50 goes with a need for much substance. What is called inhibition is the percentage by which the read-out fell short of the control. Regarding `CS(=O)(=O)c1ccc(-c2ccc3cc(O)ccc3c2Oc2ccc(OCCN3CCN(c4ccc5c(c4)CN(C4CCC(=O)NC4=O)C5=O)CC3)cc2)cc1` (centres unmarked) [Compound D2, 3-(5-(4-(2-(4-((6-hydroxy-2-(4-(methylsulfonyl)phenyl)naphthalen-1-yl)oxy)phenoxy)ethyl)piperazin-1-yl)-1-oxoisoindolin-2-yl)piperidine-2,6-dione], the IC50 is 5.8 nM in the experiment on MDA-MB-468 (144 h, 6 days); 27.7 nM with MCF-7; 37.4 nM in the experiment with TamR-MCF-7; 968 nM in the experiment with MCF-7 ER^Y537S; 5.1 nM in the experiment with MDA-MB-231 (144 h, 6 days); 88.4 nM with MCF-7 ER^D538G. Besides, the inhibition at up to 10 µM in the experiment on MDA-MB-468 (144 h, 6 days) is 99%; in the experiment with MCF-7 it was 100%; with TamR-MCF-7, 94%; in the experiment with MCF-7 ER^Y537S it was 80%; with MDA-MB-231 (144 h, 6 days) it was 100%; with MCF-7 ER^D538G, 93%.
Regarding `CN(C)C(=O)c1ccc(-c2ccc3ccccc3c2Oc2ccc(OCCN3CCN(c4ccc5c(c4)CN(C4CCC(=O)NC4=O)C5=O)CC3)cc2)cc1` (centres unmarked) [Compound D68, 4-(1-(4-(2-(4-(2-(2,6-dioxopiperidin-3-yl)-1-oxoisoindolin-5-yl)piperazin-1-yl)ethoxy)phenoxy)naphthalen-2-yl)-N,N-dimethylbenzamide], the IC50 in the experiment on MDA-MB-468 (setting [1]) came to 35.4 nM; in the experiment with MDA-MB-231 (setting [1]), 44.2 nM. Also, the inhibition at up to 10 µM with MDA-MB-468 (setting [1]) is 59.3%; in the experiment with MDA-MB-231 (setting [1]) it was 71.5%.
For `CCN(CCOCCOc1cccc2c1C(=O)N(C1CCC(=O)NC1=O)C2=O)CCOc1ccc(Oc2c(-c3ccc(S(C)(=O)=O)cc3)ccc3cc(O)ccc23)cc1` (centres unmarked) [Compound D18, 2-(2,6-dioxopiperidin-3-yl)-4-(2-(2-(ethyl(2-(4-((6-hydroxy-2-(4-(methylsulfonyl)phenyl)naphthalen-1-yl)oxy)phenoxy)ethyl)amino)ethoxy)ethoxy)isoindoline-1,3-dione], the inhibition at up to 10 µM amounted to 39% in the experiment on MCF-7; 67% with MCF-7 ER^Y537S; 41% with MDA-MB-231 (144 h, 6 days); 81% with MCF-7 ER^D538G.
`CCN(CCNc1cccc2c1CN(C1CCC(=O)NC1=O)C2=O)CCOc1ccc(Oc2c(-c3ccc(S(C)(=O)=O)cc3)ccc3cc(O)ccc23)cc1` (centres unmarked) [Compound D17, 3-(4-((2-(ethyl(2-(4-((6-hydroxy-2-(4-(methylsulfonyl)phenyl)naphthalen-1-yl)oxy)phenoxy)ethyl)amino)ethyl)amino)-1-oxoisoindolin-2-yl)piperidine-2,6-dione]: the inhibition at up to 10 µM in the experiment on MCF-7 was 58%; in the experiment with TamR-MCF-7, 39%; with MCF-7 ER^Y537S it was 77%; with MDA-MB-231 (144 h, 6 days) it was 87%; in the experiment with MCF-7 ER^D538G, 86%.
Regarding `CS(=O)(=O)c1ccc(-c2ccc3ccccc3c2Oc2ccc(OC(=O)N3CCN(c4ccc5c(c4)CN(C4CCC(=O)NC4=O)C5=O)CC3)cc2)cc1` (centres unmarked) [Compound D66, 4-((2-(4-(methylsulfonyl)phenyl)naphthalen-1-yl)oxy)phenyl 4-(2-(2,6-dioxopiperidin-3-yl)-1-oxoisoindolin-5-yl)piperazine-1-carboxylate], in the experiment on MDA-MB-468 (setting [1]), it took 2.2 nM to reach half-maximal inhibition (IC50) and the inhibition at up to 10 µM came out at 90.6%. Also, in the experiment with MDA-MB-231 (setting [1]), the IC50 was 1.4 nM and the inhibition at up to 10 µM worked out at 85.4%.
For `O=C1CCC(N2Cc3cc(N4CCN(CCOc5ccc(Oc6c(-c7ccc(C(=O)N8CCCC8)cc7)ccc7cc(O)ccc67)cc5)CC4)ccc3C2=O)C(=O)N1` (centres unmarked) [Compound D65, 3-(5-(4-(2-(4-((6-hydroxy-2-(4-(pyrrolidine-1-carbonyl)phenyl)naphthalen-1-yl)oxy)phenoxy)ethyl)piperazin-1-yl)-1-oxoisoindolin-2-yl)piperidine-2,6-dione], in that order: 29 nM, 83.6%, 3.6 nM and 83.6%.
As for `CCN(CCOCCOCC(=O)N1CCN(c2cccc3c2CN(C2CCC(=O)NC2=O)C3=O)CC1)CCOc1ccc(Oc2c(-c3ccc(S(C)(=O)=O)cc3)ccc3cc(O)ccc23)cc1` (centres unmarked) [Compound D47], the inhibition at up to 10 µM with MDA-MB-468 (144 h, 6 days) was determined as 94%; in the experiment with MCF-7, 31%; in the experiment with MCF-7 ER^Y537S it was 73%; with MDA-MB-231 (144 h, 6 days), 83%; in the experiment with MCF-7 ER^D538G it was 89%. Besides, the half-inhibitory concentration (IC50) with MCF-7 ER^D538G amounted to 830 nM.
Take `C[C@@H]1CN(CCOCC(=O)Nc2cccc3c2CN(C2CCC(=O)NC2=O)C3=O)[C@@H](C)CN1CCOc1ccc(Oc2c(-c3ccc(S(C)(=O)=O)cc3)ccc3cc(O)ccc23)cc1` (stereo partly drawn) [Compound D25, N-(2-(2,6-dioxopiperidin-3-yl)-1-oxoisoindolin-4-yl)-2-(2-((2S,5R)-4-(2-(4-((6-hydroxy-2-(4-(methylsulfonyl)phenyl)naphthalen-1-yl)oxy)phenoxy)ethyl)-2,5-dimethylpiperazin-1-yl)ethoxy)acetamide]: the inhibition at up to 10 µM turned out to be 96% with MDA-MB-468 (144 h, 6 days); 62% in the experiment on MCF-7; 59% in the experiment with MCF-7 ER^Y537S; 53% in the experiment on MDA-MB-231 (144 h, 6 days); 86% in the experiment on MCF-7 ER^D538G.
